Measurements taken from patent EP0750618B1, “OXAZOLIDINONE DERIVATIVES AND PHARMACEUTICAL COMPOSITIONS CONTAINING THEM” (priority 1994, dated 1995).
In brackets after ≈: the same amount, converted by molar mass. Where two headings read alike, the source gives them in different places.

How the values were obtained:
[1] = tested on: Staphylococcus epidermidis (UC 12084); assay: MIC test, standard agar dilution method; type: cell-based; settings: UC12084, incubated overnight at 35°C, read-out: Minimum Inhibitory Concentrations (MIC) S. enidermidis
[2] = tested on: Staphylococcus aureus; assay: MIC test, standard agar dilution method
[3] = tested on: Streptococcus pyogenes (UC 152); assay: MIC test, standard agar dilution method; settings: UC152, read-out: Minimum Inhibitory Concentrations (MIC) S. pyogenes
[4] = tested on: Mycobacterium tuberculosis; assay: MIC test, standard agar dilution method; type: cell-based; settings: read-out: Minimum Inhibitory Concentrations (MIC) M. tuberculosis
[5] = tested on: Staphylococcus aureus (UC 9213); assay: Murine Assay procedure (in vivo), survival after intraperitoneal infection; settings: UC9213, 144 h, oral administration one hour and five hours after infection, female mice infected i.p. with S. aureus UC 9213, survival over six days, probit analysis
Description: Groups of female mice (six mice of 18-20 grams each) were injected intraperitoneally with Staphylococcus aureus (UC 9213) bacteria which were thawed just prior to use and suspended in brain heart infusion with 4% brewer's yeast (Staphylococcus aureus) or brain heart infusion (Streptococcus species). Antibiotic treatment at six dose levels per drug (compound) was administered one hour and five hours after infection by either oral intubation or subcutaneous routes. Survival was observed daily for six days. ED50 values based on mortality ratios were calculated using probit analysis.

[6] = UC9213, read-out: Minimum Inhibitory Concentrations (MIC) S. aureus

Row | SMILES | MIC [1] | MIC ([2]; UC9218, read-out: Minimum Inhibitory Concentrations (MIC) S. aureus) | MIC [3] | MIC [4] | MIC [2, 6] | ED50 [5]
1 | CCOC(=O)C1CCN(c2ccc(N3C[C@H](CNC(C)=O)OC3=O)cc2F)CC1 [Compound No. 1, (S)-1-{4-[5-(acetylamino-methyl)-2-oxo-oxazolidin-3-yl]-2-fluoro-phenyl}-piperidine-4-carboxylic acid ethyl ester] | 2 µg/mL (≈ 4.91 µM) | 8 µg/mL (≈ 19.6 µM) | 2 µg/mL (≈ 4.91 µM) | 1 µg/mL (≈ 2.45 µM) | – | –
2 | CC(=O)NC[C@H]1CN(c2ccc(N3CCC(O)CC3)c(F)c2)C(=O)O1 [Compound No. 3, (S)-N-{3-[3-fluoro-4-(4-hydroxy-piperidin-1-yl)-phenyl]-2-oxo-oxazolidin-5-ylmethyl}-acetamide] | 2 µg/mL (≈ 5.69 µM) | – | 2 µg/mL (≈ 5.69 µM) | 1 µg/mL (≈ 2.85 µM) | 8 µg/mL (≈ 22.8 µM) | –
3 | CC(=O)NC[C@H]1CN(c2ccc(N3CCC(=O)CC3)c(F)c2)C(=O)O1 [Compound No. 7, (S)-N-{3-[3-fluoro-4-(4-oxo-piperidin-1-yl)-phenyl]-2-oxo-oxazolidin-5-ylmethyl}-acetamide] | 0.5 µg/mL (≈ 1.43 µM) | – | 2 µg/mL (≈ 5.72 µM) | – | 2 µg/mL (≈ 5.72 µM) | 8.1 mg/kg
4 | CC(=O)NC[C@H]1CN(c2ccc(N3CCC(=NO)CC3)c(F)c2)C(=O)O1 [Compound No. 11, (S)-N-{3-[3-fluoro-4-(4-hydroxyimino-piperidin-1-yl)-phenyl]-2-oxo-oxazolidin-5-ylmethyl}-acetamide] | 1 µg/mL (≈ 2.74 µM) | – | 1 µg/mL (≈ 2.74 µM) | – | 2 µg/mL (≈ 5.49 µM) | 8.2 mg/kg
5 | COC(=O)NC1CCN(c2ccc(N3C[C@H](CNC(C)=O)OC3=O)cc2F)CC1 [Compound No. 30, (S)-N-{3-[3-fluoro-4-(4-methoxycarbonylamino-piperidin-1-yl)-phenyl]-2-oxo-oxazolidin-5-ylmethyl}-acetamide] | 2 µg/mL (≈ 4.9 µM) | – | 2 µg/mL (≈ 4.9 µM) | – | 4 µg/mL (≈ 9.79 µM) | 2.8 mg/kg
6 | COC(=O)NN=C1CCN(c2ccc(N3C[C@H](CNC(C)=O)OC3=O)cc2F)CC1 [Compound No. 31, (S)-N-{3-[3-fluoro-4-(4-methoxycarbonylhydrazono-piperidin-1-yl)-phenyl]-2-oxo-oxazolidin-5-ylmethyl}-acetamide] | 0.5 µg/mL (≈ 1.19 µM) | – | 1 µg/mL (≈ 2.37 µM) | – | 2 µg/mL (≈ 4.75 µM) | 5 mg/kg
7 | CC(=O)NC[C@H]1CN(c2ccc(N3CCC(=NOC(=O)COC(C)=O)CC3)c(F)c2)C(=O)O1 [compound 43, (S)-N-{3-[3-fluoro-4-(4-acetoxyacetoxyimino-piperidin-1-yl)-phenyl]-2-oxo-oxazolidin-5-ylmethyl}-acetamide] | 0.5 µg/mL (≈ 1.08 µM) | – | 1 µg/mL (≈ 2.15 µM) | – | 4 µg/mL (≈ 8.61 µM) | –
8 | CC(=O)NC[C@H]1CN(c2ccc(N3CCC(=NOC(=O)COCc4ccccc4)CC3)c(F)c2)C(=O)O1 [compound 45, (S)-N-{3-[3-fluoro-4-(4-benzyloxyacetoxyimino-piperidin-1-yl)-phenyl]-2-oxo-oxazolidin-5-ylmethyl}-acetamide] | 0.5 µg/mL (≈ 0.976 µM) | – | 2 µg/mL (≈ 3.9 µM) | – | 2 µg/mL (≈ 3.9 µM) | –
9 | CC(=O)NC[C@H]1CN(c2ccc(N3CCC(=NN)CC3)c(F)c2)C(=O)O1 [compound 46, (S)-N-{3-[3-fluoro-4-(4-hydrazono-piperidin-1-yl)-phenyl]-2-oxo-oxazolidin-5-ylmethyl}-acetamide] | 0.5 µg/mL (≈ 1.38 µM) | – | 2 µg/mL (≈ 5.5 µM) | – | 2 µg/mL (≈ 5.5 µM) | –
10 | COC(=O)CON=C1CCN(c2ccc(N3C[C@H](CNC(C)=O)OC3=O)cc2F)CC1 [compound 47, (S)-(1-{4-[5-(acetylamino-methyl)-2-oxo-oxazolidin-3-yl]-2-fluoro-phenyl}-piperidin-4-ylideneaminooxy)-acetic acid methyl ester] | 1 µg/mL (≈ 2.29 µM) | – | 2 µg/mL (≈ 4.58 µM) | – | 8 µg/mL (≈ 18.3 µM) | –
11 | CC(=O)NC[C@H]1CN(c2ccc(N3CCC(=NOCCO)CC3)c(F)c2)C(=O)O1 [compound 48, (S)-N-(3-{3-fluoro-4-[4-(2-hydroxy-ethoxyimino)-piperidin-1-yl]-phenyl}-2-oxo-oxazolidin-5-ylmethyl)-acetamide] | 1 µg/mL (≈ 2.45 µM) | – | 2 µg/mL (≈ 4.9 µM) | – | 8 µg/mL (≈ 19.6 µM) | –
12 | CC(=O)NC[C@H]1CN(c2ccc(N3CCC(=NN4CCN(CCO)CC4)CC3)c(F)c2)C(=O)O1 [compound 49, (S)-N-[3-(3-fluoro-4-{4-[4-(2-hydroxy-ethyl)-piperazin-1-ylimino]-piperidin-1-yl)-phenyl)-2-oxo-oxazolidin-5-ylmethyl]-acetamide] | 0.5 µg/mL (≈ 1.05 µM) | – | 1 µg/mL (≈ 2.1 µM) | – | 4 µg/mL (≈ 8.39 µM) | –
13 | CC(=O)NC[C@H]1CN(c2ccc(N3CCC(=NNC(=O)CO)CC3)c(F)c2)C(=O)O1 [compound 50, (S)-N-[3-(3-fluoro-4-{4-[(2-hydroxy-acetyl)-hydrazono]-piperidin-1-yl}-phenyl)-2-oxo-oxazolidin-5-ylmethyl]-acetamide] | 4 µg/mL (≈ 9.49 µM) | – | 4 µg/mL (≈ 9.49 µM) | – | 16 µg/mL (≈ 38 µM) | –
14 | CC(=O)NC[C@H]1CN(c2ccc(N3CCC(=Nn4cnnc4)CC3)c(F)c2)C(=O)O1 [compound 51, (S)-N-(3-{3-fluoro-4-[4-([1,2,4]triazol-4-ylimino)-piperidin-1-yl]-phenyl}-2-oxo-oxazolidin-5-ylmethyl)-acetamide] | 1 µg/mL (≈ 2.41 µM) | – | 2 µg/mL (≈ 4.81 µM) | – | 4 µg/mL (≈ 9.63 µM) | –
15 | COCOCCON=C1CCN(c2ccc(N3C[C@H](CNC(C)=O)OC3=O)cc2F)CC1 [compound 53, (S)-N-(3-{3-fluoro-4-[4-(2-methoxymethoxy-ethoxyimino)-piperidin-1-yl]-phenyl}-2-oxo-oxazolidin-5-ylmethyl)-acetamide] | 2 µg/mL (≈ 4.42 µM) | – | 4 µg/mL (≈ 8.84 µM) | – | 16 µg/mL (≈ 35.4 µM) | –
16 | CCOC(=O)CC(=O)NN=C1CCN(c2ccc(N3C[C@H](CNC(C)=O)OC3=O)cc2F)CC1 [compound 56, (S)-(1-{4-[5-(acetylamino-methyl)-2-oxo-oxazolidin-3-yl]-2-fluorophenyl}-piperidin-4-ylidenehydrazinocarbonyl)-acetic acid ethyl ester] | 1 µg/mL (≈ 2.09 µM) | – | 2 µg/mL (≈ 4.19 µM) | – | 4 µg/mL (≈ 8.38 µM) | –
17 | COCOCC1COC2(CCN(c3ccc(N4C[C@H](CNC(C)=O)OC4=O)cc3F)CC2)O1 (stereo partly drawn) [compound 57, (S)-N-(3-{3-fluoro-4-[2-(methoxymethoxy-methyl)-1,4-dioxa-8-aza-spiro[4.5]dec-8-yl]-phenyl}-2-oxo-oxazolidin-5-ylmethyl)-acetamide] | 4 µg/mL (≈ 8.56 µM) | – | 8 µg/mL (≈ 17.1 µM) | – | 16 µg/mL (≈ 34.2 µM) | –
18 | COCON=C1CCN(c2ccc(N3C[C@H](CNC(C)=O)OC3=O)cc2F)CC1 [compound 60, (S)-N-{3-[3-fluoro-4-(4-methoxymethoxyimino-piperidin-1-yl)-phenyl]-2-oxo-oxazolidin-5-ylmethyl}-acetamide] | 2 µg/mL (≈ 4.9 µM) | – | 2 µg/mL (≈ 4.9 µM) | – | 8 µg/mL (≈ 19.6 µM) | –
19 | COCCNC1CCN(c2ccc(N3C[C@H](CNC(C)=O)OC3=O)cc2F)CC1 [compound 64, (S)-N-(3-{3-fluoro-4-[4-(2-methoxy-ethylamino)-piperidin-1-yl]-phenyl}-2-oxo-oxazolidin-5-ylmethyl)-acetamide] | 2 µg/mL (≈ 4.9 µM) | – | 1 µg/mL (≈ 2.45 µM) | – | 32 µg/mL (≈ 78.3 µM) | –
20 | CC(=O)NC[C@H]1CN(c2ccc(N3CCC(NC(=O)OCOC(C)=O)CC3)c(F)c2)C(=O)O1 [compound 65, (S)-N-(3-{4-[4-(acetoxy-methoxy-carbonylamino)-piperidin-1-yl]-3-fluorophenyl}-2-oxo-oxazolidin-5-ylmethyl)-acetamide] | 1 µg/mL (≈ 2.14 µM) | – | 0.5 µg/mL (≈ 1.07 µM) | – | 8 µg/mL (≈ 17.2 µM) | –
